According to patent publication US20150217006A1, “AL-F-18-LABELED, AL-F-19-LABELED AND GA-68-LABELED GASTRIN-RELEASING PEPTIDE RECEPTOR (GRPR)-ANTAGONISTS FOR IMAGING OF PROSTATE CANCER” (Immunomedics, Inc., priority 2014, published 2015):
Like-named read-outs stand apart in the source and are kept apart here. Residues, ends and D or L forms follow the SMILES beside them.

How the values were obtained:
[1] = tested on: GRPR-positive PC-3 tumors; settings: mouse, in vivo
Protocol: (§1) 2-3 weeks after inoculation, when tumor size averaged 200 mm^3, mice were injected intravenously with 5-10 MBq of radiolabeled peptide (200 pmol, 200 μL). To determine the receptor-mediated localization of the radiolabeled peptides, additional animals were co-injected with an excess (20 nmol) of unlabeled peptide. Mice were euthanized 1 h or 2 h post injection (p.i.) by CO2/O2 asphyxiation. Mice were first scanned in prone position on a small animal PET/CT scanner (Inveon; Siemens Preclinical Solutions). PET emission scans were acquired for 30-60 min, followed by a CT scan (spatial resolution 113.15 μm; 80 kV; and 500 μA). Scans were reconstructed using Inveon Acquisition Workplace software (version 1.5; Siemens Preclinical Solutions), using a 3-dimensional ordered-subset expectation maximization/maximization a posteriori algorithm with the following parameters: matrix, 256×256×161; pixel size, 0.40×0.40×0.796 mm; and β-value, 1.5, with uniform variance and FastMAP. After scanning, blood, tumor, and relevant organs and tissues were collected, weighed and counted in a γ-counter. The percentage injected dose per gram (% ID/g) was determined for each tissue sample.
(§2) Statistical analysis was performed using GraphPad Prism version 5.01 (San Diego, Calif., USA). […] Statistical analysis on biodistribution data was performed using a 1-way ANOVA with a Bonferroni post-hoc test, and the level of significance was set at P less than 0.05.

[2] = tested on: GRPR-positive PC-3 tumors; experiment: Small-animal PET/CT and biodistribution in mice bearing s.c. PC-3 xenografts; settings: for tumor uptake after co-injection of excess unlabeled peptide (GRPR-specificity): co-injection of 100-fold excess of unlabeled JMV4168 or JMV5132
Protocol: as §1, §2

[3] = molecular target: T1, PC-3 cells (gastrin-releasing peptide receptor) (Homo sapiens, UniProt P30550); experiment: Blocking of 125I-Bombesin binding to PC-3 cells; settings: 56 to 0.44 nM
T1 construct: 3×10^6 PC-3 cells were exposed to a constant amount (˜50,000 cpms) of ^125I-Bombesin; endogenous in cells; host or cells: PC-3 cells
T1 sequence (P30550 whole entry): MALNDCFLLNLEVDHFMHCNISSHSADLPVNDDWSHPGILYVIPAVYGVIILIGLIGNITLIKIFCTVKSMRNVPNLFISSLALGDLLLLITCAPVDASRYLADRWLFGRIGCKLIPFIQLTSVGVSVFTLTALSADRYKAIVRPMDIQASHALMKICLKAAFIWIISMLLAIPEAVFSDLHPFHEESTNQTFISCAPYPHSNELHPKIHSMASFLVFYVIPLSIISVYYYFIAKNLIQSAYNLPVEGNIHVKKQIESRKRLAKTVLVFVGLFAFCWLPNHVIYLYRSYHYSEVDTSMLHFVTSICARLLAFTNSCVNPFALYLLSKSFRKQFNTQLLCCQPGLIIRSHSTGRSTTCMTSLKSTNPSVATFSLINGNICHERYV
Protocol: A NOTA-conjugated bombesin derivative (IMP468) was prepared as described above. […] Our initial experiment was to determine if IMP468 could specifically block bombesin from binding to PC-3 cells. We used IMP333 as a non-specific control. […] A range of 56 to 0.44 nM was used as our inhibitory concentrations.
This experiment was repeated using a commercially available BBN peptide.

[4] = Small-animal PET/CT and biodistribution in mice bearing s.c. PC-3 xenografts; settings: male, nude BALB/c, mouse, iv, 200 pmol, total radioactivity, 200 pmol
Protocol: as §1, §2

[5] = Octanol/water partition coefficient; type: physicochemical; settings: pH 7.4, octanol / PBS pH 7.4, n=3; read-out: log P octanol/water
Protocol: Octanol/Water Partition Coefficient The radiolabeled peptide (1 MBq) was diluted in 500 μL phosphate-buffered saline (pH 7.4) and mixed vigorously with 500 μL octanol for 2 min using a vortex mixer. The two layers were separated by centrifugation (1000 rpm, 5 min).

in vivo = settings: male, nude BALB/c, mouse, iv, 200 pmol, total radioactivity, uptake in PC-3 tumors
Protocol: as §1, §2

[6] = male, nude BALB/c, iv, 200 pmol, 2 h

## CC(C)C[C@H](NC(=O)C[C@H](O)[C@H](CC(C)C)NC(=O)[C@H](Cc1c[nH]cn1)NC(=O)CNC(=O)[C@@H](NC(=O)[C@H](C)NC(=O)[C@H](Cc1c[nH]c2ccccc12)NC(=O)[C@H](CCC(N)=O)NC(=O)[C@@H](Cc1ccccc1)NC(=O)CCNC(=O)CCNC(=O)Cc1ccc(CN2CCN(CC(=O)O)CCN(CC(=O)O)CC2)cc1)C(C)C)C(N)=O [Al^18F-JMV5132]
[1]; [6]
  remaining in blood: 0.05±0.01 % ID/g
  uptake in PC-3 tumors: 5.30±0.98 % ID/g
[2]
  tumor uptake after co-injection of excess unlabeled peptide (GRPR-specificity): significantly reduced

## CSCC[C@H](NC(=O)[C@H](CC(C)C)NC(=O)[C@H](Cc1c[nH]cn1)NC(=O)CNC(=O)[C@@H](NC(=O)[C@H](C)NC(=O)[C@H](Cc1c[nH]c2ccccc12)NC(=O)[C@@H](NC(=O)[C@H](Cc1c[nH]c2ccccc12)NC(=O)[C@H](CCC(N)=O)NC(=O)CCCCCCCNC(=O)CN1CCN(CC(=O)O)CCN(CC(=O)O)CC1)C(C)C)C(C)C)C(N)=O [IMP468] (HELM PEPTIDE1{[O=C(O)CN1CCN(CC(=O)O)CCN(CC(=O)[*:2])CC1].[O=C(CCCCCCCN[*:1])[*:2]].Q.W.V.W.A.V.G.H.L.M.[am]}$$$$V2.0)
[3]
  block the binding of 125I-BBN: could block

## CC(C)C[C@H](NC(=O)C[C@H](O)[C@H](CC(C)C)NC(=O)[C@H](Cc1c[nH]cn1)NC(=O)CNC(=O)[C@@H](NC(=O)[C@H](C)NC(=O)[C@H](Cc1c[nH]c2ccccc12)NC(=O)[C@H](CCC(N)=O)NC(=O)[C@@H](Cc1ccccc1)NC(=O)CCNC(=O)CCNC(=O)CN1CCN(CC(=O)O)CCN(CC(=O)O)CCN(CC(=O)O)CC1)C(C)C)C(N)=O [^68Ga-JMV4168, metal not drawn]
[4]; PC-3 tumor, uptake in PC-3 tumors, 2 h after injection, i.v.
  tissue uptake at 2 h: 5.96 ± 1.39 %ID/g
[4]; blood, remaining in blood, 2 h p.i.
  tissue uptake at 2 h: 0.09 ± 0.04 %ID/g
[2]; from 1 h to 2 h p.i.
  pancreas uptake decreased by a factor: 6.1
[2]; mice with s.c. PC-3 xenografts
  clearance / excretion route: exclusively via the kidney
[5]
  logP: -2.53 ± 0.04

## CC(C)C[C@H](NC(=O)C[C@H](O)[C@H](CC(C)C)NC(=O)[C@H](Cc1c[nH]cn1)NC(=O)CNC(=O)[C@@H](NC(=O)[C@H](C)NC(=O)[C@H](Cc1c[nH]c2ccccc12)NC(=O)[C@H](CCC(N)=O)NC(=O)[C@@H](Cc1ccccc1)NC(=O)CCNC(=O)CCNC(=O)Cc1ccc(CN2CCN(CC(=O)O)CCN(CC(=O)O)CC2)cc1)C(C)C)C(N)=O [^68Ga-JMV5132, metal not drawn]
In vivo
  tissue uptake at 2 h: 5.24 ± 0.29 %ID/g
[1]; [6]
  remaining in blood: 0.19±0.13 % ID/g
[1]
  clearance / excretion route: partially hepatobiliary
[2]
  tumor uptake after co-injection of excess unlabeled peptide (GRPR-specificity): significantly reduced
